Measurements as given in US20050089524A1, “Compositions and compounds for use as molecular adjuvant for a nicotine vaccine” (priority 2002, published 2005).
Square brackets hold non-standard residues; d marks the D form. Peptide text beside a SMILES is read from it.

Tests used:
[1] = tested on: immunizing peptide and free peptides; assay: ELISA of sera from mice immunized with HBsAg CTL epitope-C5a agonist constructs; assay type: in vivo; conditions: 1:50 dilution of the serum
Description: Immunization protocols. Groups of six to eight BALB/c mice were given bilateral s.c. injections in the inguinal area with (100 μl each side) of a PBS solution containing 50-100 μg of the peptides. Booster injections were given s.c. in the inguinal region at 21-day intervals. Sera for Ab analysis were obtained by retro-orbital bleeds of mice under CO2 narcosis.
Antibodies to the HBsAg CTL epitope or the C5a agonist are not produced by immunization with the HBsAg CTL epitope-C5a agonist constructs. […] Thus, it was of interest to determine whether sera from mice immunized with the control peptides and epitope-C5a agonist constructs contained antibody directed against any of the peptides. […] (SEQ ID NO: 12), […]

[2] = tested on: 51Cr-labeled P815S (HBsAg transfectant) target cells; assay: HBsAg-specific CTL response of immunized mice (51Cr-release assay); assay type: in vivo, BALB/c mice; conditions: for % Specific Lysis: s.c. in PBS, boost day 21, spleen cells day 42
[3] = molecular target: T1, C5aR (Homo sapiens, UniProt P21730); assay: Binding affinity for C5aRs on human PMNs (125I-C5a competition)
T1 construct: endogenous in cells; host or cells: intact human PMNs (polymorphonuclear leukocytes)
T1 sequence (P21730 1-350): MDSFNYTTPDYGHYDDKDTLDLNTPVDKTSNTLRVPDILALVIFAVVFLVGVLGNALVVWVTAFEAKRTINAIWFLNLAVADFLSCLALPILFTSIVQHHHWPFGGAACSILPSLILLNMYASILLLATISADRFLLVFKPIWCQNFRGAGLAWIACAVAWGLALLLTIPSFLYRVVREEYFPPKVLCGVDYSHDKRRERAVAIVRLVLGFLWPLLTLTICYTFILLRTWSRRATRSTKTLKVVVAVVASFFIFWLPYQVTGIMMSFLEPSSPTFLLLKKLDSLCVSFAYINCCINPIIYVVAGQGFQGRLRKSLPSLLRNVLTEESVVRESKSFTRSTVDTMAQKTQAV
Description: Pharmacologic assays. C5a-like agonistic activity was assessed by the ability of the peptides to induce smooth muscle contraction of human umbilical artery and […] from human PMNs according to previously published methods (Sanderson et al., 1994, supra; Sanderson et al., J. Med. Chem. 38, 3669, 1995; Finch et al., J. Med. Chem. 40, 877, 1997). Full concentration-response curves were generated for individual peptides and natural C5a in each assay and the EC50 values (the concentration of peptide producing 50% of the maximal response to each peptide) were calculated. pD2 transforms [−log EC50 (M)] were calculated for each concentration-response curve and reported as the mean±SE. Peptide binding affinity to the C5aR was evaluated on intact human PMNs by a competition assay using ^125I-C5a according to previously described methods (Sanderson et al., 1995, supra; Finch et al., 1997, supra). Statistical analysis of the values obtained from pharmacologic assays was performed using one-way analysis of variance (ANOVA).

[4] = tested on: human PMNs; assay: MPO release from human PMNs; assay type: cell-based
Description: (§1) Pharmacologic assays. […] Statistical analysis of the values obtained from pharmacologic assays was performed using one-way analysis of variance (ANOVA).

[5] = tested on: human umbilical artery; assay: Smooth muscle contraction of human umbilical artery; assay type: cell-based
Description: as §1

[6] = molecular target: C5a receptor (C5aR) expressed on the surface of human PMNs (human) (UniProt P21730); assay: competition with 125I-C5a on intact human PMNs; concentration giving 50% inhibition of 125I-C5a binding
[7] = molecular target: C5a receptor (C5aR) expressed on the surface of human PMNs (human) (UniProt P21730); assay: competition with 125I-C5a on intact human PMNs
[8] = molecular target: C5a receptor (C5aR) expressed on the surface of human PMNs (human) (UniProt P21730); assay: cell-based or functional assay
[9] = tested on: male Sprague-Dawley rats
[10] = Anti-nicotine antibodies in immune serum of rats (ELISA); assay type: in vivo, Wistar rats
Description: ii. Animal Models. Five groups of male Wistar rats (ca 275 g) were immunized every other week with: 1) PBS 2) Nic-[…]aR (Nic-SEQ ID NO:1), 3) Nic-[…]aR (Nic-SEQ ID NO:1) in Freund's adjuvant, 4) Nic-[…]aR (Nic-SEQ ID NO:2), and 5) Nic-[…]aR (Nic-SEQ ID NO:2) in Freund's adjuvant. Primary immunizations were accomplished by subcutaneous (s.c.) and intrapertioneal (i.p.) injection of 100 μg of the peptides as indicated above in the presence or absences of complete Freund's adjuvant. Boosting was performed in identical fashion at two-week internals with 100 μg of the peptides in the presence of absence of Freund's adjuvant. Sera were obtained by retro-orbital sinus puncture one week after the third injection.

[11] = molecular target: T2, C5a receptor (C5aR) expressed on the surface of human PMNs (human, UniProt P21730 1-350); assay: competition with 125I-C5a on intact human PMNs
T2 construct: whole, on cells; also called C5aRs
T2 sequence (looked up): T1 sequence (P21730 1-350)
Description: Pharmacologic activities.

[12] = molecular target: T2, C5a receptor (C5aR) expressed on the …; assay: cell-based or functional assay
[13] = molecular target: T2, C5a receptor (C5aR) expressed on the …; assay: cell-based or functional assay; remark: listed apart in the source
[14] = molecular target: T2, C5a receptor (C5aR) expressed on the …; assay: competition with 125I-C5a on intact human PMNs; concentration giving 50% inhibition of 125I-C5a binding
[15] = 100 μg s.c. and i.p., sera one week after the third injection

With CC[C@H](C)[C@H](N)C(=O)N1CCC[C@H]1C(=O)N[C@@H](CCC(N)=O)C(=O)N[C@@H](CO)C(=O)N[C@@H](CC(C)C)C(=O)N[C@@H](CC(=O)O)C(=O)N[C@@H](CO)C(=O)N[C@@H](Cc1c[nH]c2ccccc12)C(=O)N[C@@H](Cc1c[nH]c2ccccc12)C(=O)N[C@H](C(=O)N[C@@H](CO)C(=O)N[C@@H](CC(C)C)C(=O)N[C@@H](CCCNC(=N)N)C(=O)N[C@@H](CCCNC(=N)N)C(=O)N[C@@H](Cc1ccc(O)cc1)C(=O)N[C@@H](CO)C(=O)N[C@@H](Cc1ccccc1)C(=O)N[C@@H](CCCCN)C(=O)N1CCC[C@H]1C(=O)N[C@@H](CCSC)C(=O)N1CCC[C@H]1C(=O)N[C@@H](CC(C)C)C(=O)N[C@H](C)C(=O)N[C@@H](CCCNC(=N)N)C(=O)O)[C@@H](C)O (H-IPQSLDSWWTSLRRYSFKPMPL[dA]R-OH; N-terminus assumed) the “serum binding to the free C5a agonist and CTL epitope peptides (ELISA)” value [1] was “did not bind the free peptides”, the “% Specific Lysis” value ([2]; Effector:Target Ratio 6.25:1) was 9% and the “% Specific Lysis” value ([2]; Effector:Target Ratio 12.5:1) was 14%. The “% Specific Lysis” value ([2]; Effector:Target Ratio 25:1) was 23%, the “% Specific Lysis” value ([2]; Effector:Target Ratio 50:1) was 32% and the “antigen-specific CTL response” value ([2]; three s.c. injections of 50 μg at 21 day intervals, no added adjuvant) was “generated an antigen-specific CTL response”. It also gave an EC50 [3] of 416 nM, an IC50 [3] of 417 nM and an EC50 ([4]; concentration resulting in 50% maximum release of myeloperoxidase) of 540 nM. The “pD2 ± SE” value ([4]; −log EC50 (M), mean ± SE, n 3) was 6.27 ± 0.29, the EC50 ([5]; concentration resulting in 50% maximum contraction) was 161 nM and the “pD2 ± SE” value ([5]; −log EC50 (M), mean ± SE, n 3) was 6.79 ± 0.31.

Molecule “C5a C-terminal decapeptide agonist analog YSFKPMPLaR” has an EC50 [6] of 2340 nM, a pD2 (-log EC50 (M)) [7] of 5.63 and a smooth muscle contraction of human umbilical artery, EC50 [8] of 10 nM. It also gave a smooth muscle contraction of human umbilical artery, pD2 (-log EC50 (M)) [8] of 6.99.

In the case of “Nic-YKQGGFLGLYSFKPMPLaR [B-cell-C5a-Nic]”, the “dipper entries on nicotine sessions, first cycle” value ([9]; 1000 mg (500 mg s.c. and 500 mg i.p.) in saline, boosted weekly for 2 weeks, nicotine 0.4 mg/kg s.c.) is reported as “significantly less dipper entries than non-vaccinated rats on nicotine Sessions 2 and 3”, the “index of learning-elevation score for the first light” value ([9]; first cycle) is reported as “does not differ between vaccinated and non-vaccinated rats” and the “dipper entries on saline sessions” value ([9]; nicotine not present) is reported as “does not differentially affect behavior in this preparation when nicotine is not present”. The “Modified Minus Unmodified, BSA” value [10, 15] was 0 ng/mL, the “Modified Minus Unmodified, BSA-Nic” value [10, 15] was 33,943 ng/ml and the “Raw Data, plate coated with BSA” value [10, 15] was 1,298 ng/ml. The “Raw Data, plate coated with BSA-Nic” value [10, 15] was 35,241 ng/ml and the “antibody reactivity on other nicotine-modified peptides” value ([10]; in the presence of Freund's adjuvant, FIG. 7) was 172,647 ng/ml.

B1: natural C5a (ligand, UniProt P01031 678-751, looked up)
chain: TLQKKIEEIAAKYKHSVVKKCCYDGACVNNDETCEQRAARISLGPRCIKAFTECCVVASQLRANISHKDMQLGR
In the case of B1, the “pD2 (-log EC50 (M))” value [11] is reported as 9.43, the “smooth muscle contraction of human umbilical artery, EC50” value [12] is reported as 2 nM and the “smooth muscle contraction of human umbilical artery, pD2 (-log EC50 (M))” value [12] is reported as 8.77. For the same molecule, the “MPO release from human PMNs, EC50” value [13] was 3 nM, the “MPO release from human PMNs, pD2 (-log EC50 (M))” value [13] was 8.5 and the EC50 [14] was 0.4 nM.
